Data reported in patent US6924366B2, “Recombinant hexose oxidase, a method of producing same and use of such enzyme” (Bioteknologisk Institut, priority 1995, dated 2005).

What was measured:
[1] = target: T1, native hexose oxidase from Chondrus crispus (Chondrus crispus, UniProt P93762); test: Substrate specificity of native hexose oxidase (o-dianisidine/peroxidase assay); assay type: biochemical; settings: sugar at a final concentration of 0.1 M
T1 construct: the native form isolated from Chondrus crispus; from tissue; host or cells: Chondrus crispus (red alga) fronds
T1 sequence (P93762 4-337 limits assumed): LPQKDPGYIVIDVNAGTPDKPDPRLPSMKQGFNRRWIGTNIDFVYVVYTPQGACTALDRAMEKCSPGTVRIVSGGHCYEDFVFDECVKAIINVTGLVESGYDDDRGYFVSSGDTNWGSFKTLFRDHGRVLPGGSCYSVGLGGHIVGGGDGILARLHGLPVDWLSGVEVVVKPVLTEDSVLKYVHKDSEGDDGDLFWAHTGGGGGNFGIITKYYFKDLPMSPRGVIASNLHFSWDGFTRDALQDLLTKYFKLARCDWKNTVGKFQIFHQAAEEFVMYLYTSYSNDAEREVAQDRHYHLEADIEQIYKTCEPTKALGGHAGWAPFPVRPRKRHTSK
T1 sequence (P93762 338-546 limits assumed): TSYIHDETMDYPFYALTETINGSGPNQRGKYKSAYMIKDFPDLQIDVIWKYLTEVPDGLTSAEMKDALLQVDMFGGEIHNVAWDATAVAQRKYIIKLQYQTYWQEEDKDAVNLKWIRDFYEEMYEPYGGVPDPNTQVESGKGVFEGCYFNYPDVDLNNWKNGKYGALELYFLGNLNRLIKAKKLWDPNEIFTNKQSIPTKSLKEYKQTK
Experimental: (§1) The procedure used was essentially as described by Sullivan and Ikawa, 1973. This assay is based on the principle that the hydrogen peroxide formed in the oxidation of the sugar in the presence of peroxidase reacts with the chromogenic substance, o-dianisidine to form a dye with absorbance at 402 nm.
(§2) The assay mixture consisted of 1-40 μl of enzyme sample and 850 μl of an assay solution containing 370 μl of 0.1 M sodium phosphate buffer, pH 7.0; 462 μl of 0.1 M D-glucose in 0.1 M sodium phosphate buffer, pH 7.0; 9 μl of horse radish peroxidase, 0.1 mg/ml in water (Sigma Chemicals, cat. no. P 6782 or Boehringer Mannheim, cat. no. 814 393); and 9 μl of o-dianisidine.2HCl, 3.0 mg/ml in water (3,3′-dimethoxybenzidine, Sigma Chemicals). After incubation at room temperature for 15 or 30 minutes the assay was stopped by addition of one drop of 37% HCl (Merck, p.a.). Samples of 100 μl were transferred from the assay tubes to the wells of a microtiter plate (NUNC, Denmark) and the absorbance at 410 nm was read on a Titertek Multiskan II PLUS plate reader (Labsystems/Flow Laboratories, Finland). To ensure that the observed activity was due to hexose oxidase—and not glucose oxidase—the assay was occasionally performed with D-galactose as the substrate instead of D-glucose.
(§3) The substrate specificity of recombinant hexose oxidase from Pichia pastoris and native hexose oxidase from Chondrus crispus was compared using a number of sugars at a final concentration of 0.1 M in the assay described above.

[2] = target: T2, recombinant hexose oxidase from Pichia pastoris (Chondrus crispus, UniProt P93762); test: Substrate specificity of recombinant hexose oxidase (o-dianisidine/peroxidase assay); assay type: biochemical; settings: sugar at a final concentration of 0.1 M; recombinant hexose oxidase expressed in Pichia pastoris
T2 construct: the entire hexose oxidase gene was amplified and isolated from at least three independent PCR amplifications; made in house; host or cells: Pichia pastoris KM71 with plasmid pUPO153 (pPIC3 vector), intracellular
T2 sequence (P93762 4-337 limits assumed): T1 sequence (P93762 4-337 limits assumed)
T2 sequence (P93762 338-546 limits assumed): T1 sequence (P93762 338-546 limits assumed)
Experimental: as §1, §2, §3

[3] = target: T3, native hexose oxidase from Chondrus crispus (Chondrus crispus, UniProt P93762); settings: literature data; cited from earlier work
T3 sequence (P93762 1-546): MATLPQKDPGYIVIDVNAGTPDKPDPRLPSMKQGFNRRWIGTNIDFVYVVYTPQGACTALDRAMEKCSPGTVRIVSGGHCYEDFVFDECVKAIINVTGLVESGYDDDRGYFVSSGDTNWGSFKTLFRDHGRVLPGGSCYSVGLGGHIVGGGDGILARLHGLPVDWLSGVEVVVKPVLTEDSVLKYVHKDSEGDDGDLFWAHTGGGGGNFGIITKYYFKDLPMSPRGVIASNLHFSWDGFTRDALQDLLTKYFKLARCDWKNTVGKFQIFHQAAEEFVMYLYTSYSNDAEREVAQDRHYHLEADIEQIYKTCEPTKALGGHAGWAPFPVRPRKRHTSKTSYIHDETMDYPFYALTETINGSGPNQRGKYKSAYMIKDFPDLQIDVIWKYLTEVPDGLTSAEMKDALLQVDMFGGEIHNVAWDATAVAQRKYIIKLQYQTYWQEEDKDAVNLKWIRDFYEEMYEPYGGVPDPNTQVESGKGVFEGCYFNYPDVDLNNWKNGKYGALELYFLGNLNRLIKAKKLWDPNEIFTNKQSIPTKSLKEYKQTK

[4] = target: T2, recombinant hexose oxidase from Pichia pastoris; test: Inhibition of recombinant hexose oxidase by sodium diethyldithiocarbamate; assay type: biochemical; settings: read-out: Inhibition (%), Recombinant enzyme
Experimental: as §1
as §2, with “D-glucose. […]” for “D-glucose.”

[5] = target: T1, native hexose oxidase from Chondrus crispus; test: Inhibition of native hexose oxidase by sodium diethyldithiocarbamate; assay type: biochemical; settings: read-out: Inhibition (%), Native enzyme
Experimental: as §1
as §2, with “D-glucose. […]” for “D-glucose.”

[6] = target: T4, hexose oxidase from Chondrus crispus (Chondrus crispus, UniProt P93762); settings: reported by Sullivan and Ikawa (1973); cited from earlier work
T4 sequence (P93762 1-546): T3 sequence (P93762 1-546)

O=C[C@H](O)[C@@H](O)[C@H](O[C@@H]1O[C@H](CO)[C@@H](O)[C@H](O)[C@H]1O)[C@H](O)CO [Cellobiose]
Relative rate, native enzyme, this work [1]: 33 | Relative rate, recombinant enzyme [2]: 51 | Relative rate, native enzyme, Sullivan and Ikawa, 1973 [3]: 32

CCN(CC)C(=S)[S-].[Na+] [sodium diethyldithiocarbamate]
inhibition at 10 µM ([4]; concentration of inhibitor 0.01 mM): 39% | inhibition at 100 µM ([4]; concentration of inhibitor 0.1 mM): 96% | inhibition at 10 µM [5]: 41% | inhibition at 100 µM [5]: 95% | Inhibition of hexose oxidase (in words) [6]: strongly inhibited

OC[C@H]1O[C@@H](O[C@H]2[C@H](O)[C@@H](O)C(O)O[C@@H]2CO)[C@H](O)[C@@H](O)[C@H]1O (some centres unmarked) [Lactose]
Relative rate, native enzyme, this work [1]: 25 | Relative rate, recombinant enzyme [2]: 38 | Relative rate, native enzyme, Sullivan and Ikawa, 1973 [3]: 22

OC[C@H]1O[C@H](O[C@H]2[C@H](O)[C@@H](O)[C@H](O)O[C@@H]2CO)[C@H](O)[C@@H](O)[C@@H]1O [Maltose]
Relative rate, native enzyme, this work [1]: 37 | Relative rate, recombinant enzyme [2]: 57 | Relative rate, native enzyme, Sullivan and Ikawa, 1973 [3]: 40

O=C[C@H](O)[C@@H](O)[C@H](O)[C@H](O)CO [D-Glucose]
Relative rate, native enzyme, this work [1]: 100 | Relative rate, recombinant enzyme [2]: 100 | Relative rate, native enzyme, Sullivan and Ikawa, 1973 [3]: 100

O=C[C@H](O)[C@@H](O)[C@@H](O)[C@H](O)CO [D-Galactose]
Relative rate, native enzyme, this work [1]: 75 | Relative rate, recombinant enzyme [2]: 75 | Relative rate, native enzyme, Sullivan and Ikawa, 1973 [3]: 82
